# Reference: patent US9057727B2, “Screening methods using G-protein coupled receptors and related compositions” (The General Hospital Corporation, priority 2007, dated 2015)
# Entries after “also recorded” stand apart in the source; their conditions may differ. Square brackets hold non-standard residues; d marks the D form. Peptide text beside a SMILES is read from it. hArg = N=C(N)NCCCC[C@H](N)C(=O)O; Aib = CC(C)(N)C(=O)O
# What was measured:
# [1] = Plasma phosphate and serum ionized calcium in mice after subcutaneous injection; type: in vivo; conditions: 50 nmol/kg s.c.
# Experimental: FIGS. 10A and 10B are graphs showing in vivo plasma phosphate and serum ionized calcium levels in mice treated with PTH analogs. […] Serum ionized calcium concentrations were determined using a Chiron Diagnostics Model 634 Ca^++/pH analyzer. Data in A are means (±s.e.m.) of one experiment using six mice (n=6) for each injection condition; similar results were obtained in three other experiments. Data in B are means (±s.e.m.) of two experiments, each performed using triplicate mice (n=3) for each injection condition.
# The mice were further analyzed for changes in plasma phosphate and serum ionized calcium concentrations. […] At the indicated times after injection, blood was withdrawn from the tail vein and the concentrations of plasma phosphate (FIG. 10A) and serum ionized calcium (FIG. 10B) were determined. Serum ionized calcium concentrations were determined using a Chiron Diagnostics Model 634 Ca^++/pH analyzer. Plasma phosphate concentrations were measured using a Phosphorous Liqui-UV assay kit (StanBio Laboratory, Boerne, Tex.).
# Wild-type mice were injected subcutaneously with vehicle (0.9% NaCl/0.05% Tween-20), or vehicle containing a PTH peptide at a dose level of 10 to 1000 nmol/kg of body weight. At indicated times after injection, blood was withdrawn from the tail vein, and the amount of cAMP in the resulting plasma was quantified by radioimmuno assay. […]
# [2] = molecular target: T1, ROS 17/2.8 cells (endogenous rat PTHR) (Rattus norvegicus, UniProt P25961); assay: Acute cAMP response in ROS 17/2.8 rat osteoblastic cells; type: cell-based; conditions: 10^−7 M, hPTH(1-28) 10^−6 M, basal 3.7±0.4
# T1 construct: the rat osteoblastic cell line ROS17/2.8, which endogenously expresses the rat PTHR; endogenous in cells; host or cells: ROS 17/2.8 rat osteosarcoma cells (membranes or intact cells)
# T1 sequence (P25961 27-591): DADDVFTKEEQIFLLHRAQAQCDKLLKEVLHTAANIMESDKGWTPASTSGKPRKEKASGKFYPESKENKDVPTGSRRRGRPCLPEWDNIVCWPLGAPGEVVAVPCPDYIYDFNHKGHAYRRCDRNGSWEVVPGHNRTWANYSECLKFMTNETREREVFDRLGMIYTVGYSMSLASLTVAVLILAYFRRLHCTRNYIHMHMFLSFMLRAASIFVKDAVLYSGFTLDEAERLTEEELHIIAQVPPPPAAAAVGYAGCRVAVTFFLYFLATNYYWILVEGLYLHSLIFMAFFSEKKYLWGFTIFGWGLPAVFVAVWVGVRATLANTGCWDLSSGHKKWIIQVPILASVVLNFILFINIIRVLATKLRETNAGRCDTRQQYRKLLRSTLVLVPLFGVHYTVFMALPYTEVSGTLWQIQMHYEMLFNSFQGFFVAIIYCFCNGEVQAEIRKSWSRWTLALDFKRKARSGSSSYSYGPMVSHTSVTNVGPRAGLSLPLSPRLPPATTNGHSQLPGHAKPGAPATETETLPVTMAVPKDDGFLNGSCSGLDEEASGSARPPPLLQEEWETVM
# [3] = Plasma cAMP in mice after subcutaneous injection; type: in vivo
# Experimental: FIGS. 9A-9D are graphs showing in vivo plasma cAMP levels in mice treated with PTH analogs. Wild-type mice were injected subcutaneously with vehicle (0.9% NaCl/0.05% Tween-20), or vehicle containing a PTH peptide at a dose-level of 10 to 1,000 nmol of peptide per kg of body weight, and at indicated times after injection, blood was withdrawn from the tail vein, and the amount of cAMP in the resulting plasma was quantified by radioimmuno assay. Each curve corresponds to a peptide at a defined concentration, as indicated in the graph keys. The plasma cAMP concentrations are plotted as picomole per μl plasma.
# Wild-type mice were injected subcutaneously with vehicle (0.9% NaCl/0.05% Tween-20), or vehicle containing a PTH peptide so as to achieve a concentration ranging from 10 to 1000 nmol/kg of body weight. At the indicated times after injection, blood was withdrawn from the tail vein, and the amount of cAMP in the resulting plasma was quantified by radioimmuno assay (FIGS. 9A-9D).
# Wild-type mice were injected subcutaneously with vehicle (0.9% NaCl/0.05% Tween-20), or vehicle containing a PTH peptide at a dose level of 10 to 1000 nmol/kg of body weight. At indicated times after injection, blood was withdrawn from the tail vein, and the amount of cAMP in the resulting plasma was quantified by radioimmuno assay. Ionized calcium in serum was measured as above and phosphate was measured by a U.V. spectroscopic kit assay.
# NaPi-IIc = NaPi-IIc immunostaining in renal PT cells of injected mice; type: in vivo; conditions: interval 4 to 6 h
# From the text: (§1) To impair PLC signaling, we replaced alanine at position 1 of M-PTH(1-28) with tryptophan, in accordance with findings of Bisello and colleagues (J Biol Chem 277:38524-30, 2002) showing that such bulky substitutions at this position selectively impair PLC signaling.
# [4] = tested on: LLC-PK1 cells expressing NaPi-IIc transporter and the rat PTHR; assay: 32P uptake in LLC-PK1 cells expressing NaPi-IIc transporter and rat PTHR; type: cell-based
# From the text: as §1
# [5] = Plasma phosphate in mice (20 nmol/kg); type: in vivo
# From the text: as §1
# NaPi-IIa = NaPi-IIa staining in renal PT cells of injected mice; conditions: mouse, in vivo
# From the text: To help elucidate further the signaling mechanisms by which PTH ligands regulate renal phosphate transport, we developed a derivative of M-PTH(1-28) that is defective for PLC/PKC signaling, yet retains potent cAMP/PKA signaling activity. Such a peptide allows for study of the relative roles of the PKA and PKC signaling pathways in modulating the function and surface expression of the Pi transporters NaPi-IIa and NaPi-IIc in proximal tubule (PT) cells. The analog M-PTH(1-28) (M=Ala^1,Aib^3,Gln^10, Har^11,Trp^14,Arg^19), a potent agonist for cAMP and IP3 signaling pathways, induces, when injected into mice, prolonged hypophosphatemic and hypercalcemic effects.
# as §1
# [6] = tested on: opossum kidney (OK) cell line; assay: Phosphate uptake inhibition in opossum kidney cells; type: cell-based; conditions: 10 minute exposure, 1×10^−7 M
# Experimental: Data are means (±s.e.m.) of two experiments, each performed in duplicate.
# Inhibition of phosphate uptake was assessed using the opossum kidney (OK) cell line, which are derived from the renal proximal tubule.
# Cells were treated for 10 minutes at 37° C. with media (vehicle) or media containing a peptide ligand (1×10^−7 M); then (t=0), the cells were then rinsed three times with media and incubated in alone at 37° C. for varying times. At each time point, ^32PO4 was then added to the media, and after five minutes of incubation, the cells were washed, lysed, and the lysate was counted for ^32P beta radioactivity by liquid scintillation counting.
# [7] = molecular target: T2, PTHR lacking the extracellular N-terminal (N) domain (delNT) (Homo sapiens, UniProt Q03431); assay: cAMP activity in cells expressing PTHR lacking the N domain (delNT); type: cell-based
# T2 construct: expressed in transfected cells
# T2 sequence (Q03431 with tags, fused parts or gaps limits assumed): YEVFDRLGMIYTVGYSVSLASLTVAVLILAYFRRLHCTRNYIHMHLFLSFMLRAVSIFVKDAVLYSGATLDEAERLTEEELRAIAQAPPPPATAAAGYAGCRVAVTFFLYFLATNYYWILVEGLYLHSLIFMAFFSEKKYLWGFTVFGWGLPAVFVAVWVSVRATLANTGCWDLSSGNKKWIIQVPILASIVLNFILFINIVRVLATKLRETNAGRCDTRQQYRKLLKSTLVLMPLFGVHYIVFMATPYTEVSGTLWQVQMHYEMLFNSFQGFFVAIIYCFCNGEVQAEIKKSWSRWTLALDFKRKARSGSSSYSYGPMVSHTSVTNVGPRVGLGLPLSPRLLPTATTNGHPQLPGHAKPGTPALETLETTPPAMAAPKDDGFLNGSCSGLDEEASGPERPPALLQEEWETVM
# rat PTHR [8] = molecular target: T3, rat PTHR (Rattus norvegicus, UniProt P25961); assay: cAMP formation in HEK-293 cells transfected with rat PTHR; type: cell-based; conditions: versus M-PTH(1-28)
# T3 sequence (P25961 27-591): T1 sequence (P25961 27-591)
# From the text: as §1
# rat PTHR [9] = molecular target: T3, rat PTHR; assay: IP3 formation in HEK-293 cells transfected with rat PTHR; type: cell-based; conditions: versus M-PTH(1-28)
# From the text: as §1
# MC3T3-E1 cells = assay: Prolonged cAMP response after ligand wash-out in MC3T3-E1 cells; type: cell-based
# From the text: as §1
Compound,"duration of serum calcium and plasma phosphate responses, in words [1]","maximum cAMP response (ligand with IBMX 10 minutes, no wash-out) [2] [pmole/well]",dose producing comparable increase in plasma cAMP [3] [nmol/kg],"NaPi-IIc immunostaining, in words (NaPi-IIc)","^32P uptake, in words [4]",time of maximal suppression of plasma phosphate [5] [h],time of recovery of plasma phosphate to vehicle control levels [5] [h],"apical and cytoplasmic NaPi-IIa staining, in words (NaPi-IIa)","duration of phosphate uptake inhibition, in words [6]","cAMP potency on delNT compared with PTH counterparts, in words [7]","potency for stimulating cAMP formation, in words (rat PTHR [8])",fold less potent than parent peptide for stimulating IP3 formation (rat PTHR [9]),"cAMP response after ligand wash-out, in words (MC3T3-E1 cells)"
"CC[C@H](C)[C@H](NC(=O)[C@H](CCC(=O)O)NC(=O)C(C)(C)NC(=O)[C@@H](NC(=O)[C@H](C)N)C(C)C)C(=O)N[C@@H](CCC(N)=O)C(=O)N[C@@H](CC(C)C)C(=O)N[C@@H](CCSC)C(=O)N[C@@H](Cc1c[nH]cn1)C(=O)N[C@@H](CCC(N)=O)C(=O)N[C@@H](CCCCNC(=N)N)C(=O)N[C@@H](C)C(=O)N[C@@H](CCCCN)C(=O)N[C@@H](Cc1c[nH]c2ccccc12)C(=O)N[C@@H](CC(C)C)C(=O)N[C@@H](CC(N)=O)C(=O)N[C@@H](CO)C(=O)N[C@@H](CCSC)C(=O)N[C@@H](CCCNC(=N)N)C(=O)N[C@@H](CCCNC(=N)N)C(=O)N[C@H](C(=O)N[C@@H](CCC(=O)O)C(=O)N[C@@H](Cc1c[nH]c2ccccc12)C(=O)N[C@@H](CC(C)C)C(=O)N[C@@H](CCCNC(=N)N)C(=O)N[C@@H](CCCCN)C(=O)N[C@@H](CCCCN)C(=O)N[C@@H](CC(C)C)C(N)=O)C(C)C [[A^1,Aib^3,M]-PTH(1-28), [Ala^1,12,Aib^3,Gln^10,homoarginine^11,Trp^14,Arg^19]human(h)PTH(1-28)NH2] (H-AV[Aib]EIQLMHQ[hArg]AKWLNSMRRVEWLRKKL-NH2; N-terminus assumed)",more prolonged than those to hPTH(1-34)NH2,71±1,50,reduced,inhibited,2,6,prolonged reductions in NaPi-IIa immunoreactivity; also recorded: remained reduced for at least six hours,dramatically prolonged inhibitory effect on phosphate uptake,,,,
PTHrP(1-14) (AVSEHQLLHDKGKS),,,,,,,,,,much less potent for cAMP activity,,,
Trp^1-M-PTH(1-28),,,,unchanged,failed to inhibit,2,6,remained reduced for at least six hours,,,about as potent as M-PTH(1-28),at least 100 fold,retained the capacity to produce a prolonged cAMP response
